Reference: US10766896B2, “Imidazo[4,5-c] ring compounds containing guanidine substituted benzamide groups” (3M INNOVATIVE PROPERTIES COMPANY, priority 2017, dated 2020)
Counter-ions that a name gives are not always drawn.

Tested on: Human peripheral blood mononuclear cells (PBMC)
Assay: Cytokine Induction in Human Cells (PBMC; IFN-alpha by ELISA, IFN-gamma and TNF-alpha by multiplex bead assay)
Assay type: cell-based
Details: 21-24 hrs culture, lowest concentration inducing cytokine at least 2× greater than negative control; for MEC to Induce Cytokine IFN-alpha: ELISA; for MEC to Induce Cytokine IFN-gamma / MEC to Induce Cytokine TNF-alpha: multiplex bead assay
Procedure: Interferon-alpha (IFN-alpha), interferon-gamma (IFN-gamma) and tumor necrosis factor-alpha (TNF-alpha) cytokine levels (pg/mL) were measured using the procedure ‘Cytokine Induction of Human Cells’ described below. The only difference was that for Examples 2, 3, and 4 the diluted compounds were transferred to the PBMCs to achieve final compound concentrations of 100, 33.3, 11.1, 3.7, 1.23, and 0.41 micromolar. The positive control wells contained imiquimod serially diluted to concentrations of 100, 33.3, 11.1, 3.7, 1.23, and 0.41 micromolar. For Example 5, the diluted compound and positive control (imiquimod) were individually transferred to the PBMCs to achieve final concentrations of 30, 10, 3.3, 1.1, 0.37, 0.12, 0.04, and 0.01 micromolar. According to the procedure described below, IFN-alpha cytokine levels (pg/mL) were measured by using the ELISA assay (human IFN-α, pan specific, Mabtech, Cincinnati, Ohio). IFN-gamma and TNF-alpha levels (pg/mL) were measured by using the multiplex bead assay (magnetic beads, R & D Systems Minneapolis, Minn.) according to the manufacturer's instructions. […] Specifically, the minimum effective concentration of each compound (micromolar) was determined as the lowest concentration of the compound that induced a measured cytokine response at a level ([…]) that was at least 2× greater than that observed with the negative control wells.
Cytokine Induction in Human Cells
Whole blood can be obtained from healthy human donors and collected by venipuncture into vacutainer tubes or syringes containing EDTA. Human peripheral blood mononuclear cells (PBMC) are purified from the whole blood by density gradient centrifugation. Histopaque 1077 (15 mL, Sigma, St. Louis, Mo.) is transferred to 6×50 mL sterile polypropylene conical tubes. The Histopaque is overlayed with 15-25 mL of blood diluted 1:2 in Hank's Balanced Salts Solution (HBSS) (Gibco, Life Technology, Grand Island N.Y.). The tubes are then centrifuged at 1370 rpm for 30 minutes at 20° C., with no brake (400×g, GH 3.8A Rotor).
The interface (buffy coat) containing the PBMC is collected and placed in a new sterile 50 mL conical polypropylene centrifuge tube. The PBMC are mixed with an equal volume of HBSS about 20 mL from the interface and about 20 mL of HBSS), and then centrifuged at 1090 rpm, 10 min, 20° C., with brake (270×g, GH 3.8A Rotor). After completing centrifugation, the cells are resuspended in 2-3 mL ACK Red blood cell lysis buffer (ammonium chloride potassium solution, Gibco, Life Technology) and incubated for 2-5 minutes at 20° C. Next, HBSS (40 mL) is added to the cells, and the sample is centrifuged at 270×g for 10 min at 20° C. The supernatant is decanted, and the cell pellet is resuspended in 5 mL AIM V® Medium (Gibco, Life Technology). Cell aggregates and debris are removed by filtering the cell solution through a BD Falcon 70 micron nylon cell strainer (BD Biosciences, San Jose, Calif.).
The number of viable cells is determined by counting with a Miltenyi FACS instrument (Miltenyi Biotec Inc., San Diego, Calif.) or by using a hemacytometer. For determining cell viability with a hemacytometer, the cells are diluted 1/10 in 0.4% trypan blue and HBSS (specifically, 50 microliter of trypan blue+40 microliter of HBSS+10 microliter of cell solution are added to a microfuge tube and mixed). Ten microliters of the diluted cells are then applied to the hemacytometer, and the number of viable PBMC are determined by microscopy.
The PBMC sample is then resuspended in 96-well plates at a concentration of 8×10^5 cells/well in 0.1 mL of AIM-V medium. Each compound is solubilized in DMSO to create a 3 mM stock solution. The stock solution is then further diluted with AIM-V medium to prepare the serial dilutions. The diluted compound (100 microliters) is then transferred to the PBMCs to achieve final compound concentrations of 10, 1, 0.1, 0.01, 0.001, 0.0001 micromolar. The plates also have both positive and negative controls. […]

Compound	MEC to Induce Cytokine IFN-alpha	MEC to Induce Cytokine IFN-gamma	MEC to Induce Cytokine TNF-alpha
CCCCc1nc2c(N)nc3ccccc3c2n1CCCCNC(=O)c1ccc(CNC(=N)N)cc1 [Example 5, N-[4-(4-amino-2-butyl-imidazo[4,5-c]quinolin-1-yl)butyl]-4-(guanidinomethyl)benzamide dihydrochloride]	0.37 µM	1.1 µM	–
CCCc1nc2c(N)nc3ccccc3c2n1CCCCNC(=O)c1ccc(CNC(=N)N)cc1 [Example 3, N-[4-(4-amino-2-propyl-imidazo[4,5-c]quinolin-1-yl)butyl]-4-(guanidinomethyl)benzamide dihydrochloride]	3.7 µM	3.7 µM	3.7 µM
CCCCc1nc2c(N)nc3ccccc3c2n1CCOCCNC(=O)c1ccc(CNC(=N)N)cc1 [Example 2, N-[2-[2-(4-amino-2-butyl-imidazo[4,5-c]quinolin-1-yl)ethoxy]ethyl]-4-(guanidinomethyl)benzamide dihydrochloride]	1.2 µM	1.2 µM	3.7 µM
CCCCc1nc2c(N)nc3ccccc3c2n1CCCCNC(=O)c1ccc(NC(=N)N)cc1 [Example 4, N-[4-(4-amino-2-butyl-imidazo[4,5-c]quinolin-1-yl)butyl]-4-guanidinobenzamide dihydrochloride]	0.4 µM	3.7 µM	1.2 µM
